For this experiment, the system named is 293T-HRE-GFP-luc cells. Kind of experiment: Cell-based reporter assay for IC50 determinations (HRE-luciferase, hypoxia). To be noted: 6 h, 6 hrs hypoxia (1% O2), luminescence. The method in brief:
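293T-HRE-GFP-luc cells were pre-incubated with serially diluted compounds for 30 min under normoxia, then held 6 hrs in hypoxia (1% O2, 37° C). HRE-driven luciferase read by Steadylite Plus luminescence; IC50 from four-parameter logistic fit.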
Background: Reporter assays use an easily measured gene product as a stand-in for the process of interest.

A value given as a limit tells only on which side of the number the result lay.

The values that follow come from patent US20140073634A1 (Institute For Applied Cancer Science/The University of …, priority 2012, published 2014).

A word on the IC50: it is the concentration needed to halve the response being measured. `O=c1ccc(-c2nc(-c3ccc(OC(F)(F)F)cc3)no2)cn1Cc1cccc(CCO)c1` [Example 42, 1-{[3-(2-Hydroxyethyl)phenyl]methyl}-5-{3-[4-(trifluoromethoxy)phenyl]-1,2,4-oxadiazol-5-yl}-1,2-dihydropyridin-2-one] displayed an IC50 of under 100 nM.
The result for `O=c1ccc(-c2nc(-c3ccc(OC(F)(F)F)cc3)no2)cn1Cc1cccc(N2CCCCC2)c1` [Example 160, 1-{[3-(piperidin-1-yl)phenyl]methyl}-5-{3-[4-(trifluoromethoxy)phenyl]-1,2,4-oxadiazol-5-yl}-1,2-dihydropyridin-2-one] reads under 100 nM; that for `O=c1ccc(-c2nc(-c3ccc(OC(F)(F)F)cc3)no2)cn1Cc1ccnc(N2CCOCC2)c1` [Example 158, 1-{[2-(morpholin-4-yl)pyridin-4-yl]methyl}-5-{3-[4-(trifluoromethoxy)phenyl]-1,2,4-oxadiazol-5-yl}-1,2-dihydropyridin-2-one], under 100 nM; that for `COCCOc1cccc(Cn2cc(-c3noc(-c4cnc(OCC(F)(F)F)nc4)n3)ccc2=O)c1` [Example 240, 1-{[3-(2-methoxyethoxy)phenyl]methyl}-5-{5-[2-(2,2,2-trifluoroethoxy)pyrimidin-5-yl]-1,2,4-oxadiazol-3-yl}-1,2-dihydropyridin-2-one], under 100 nM.
The result for `N#Cc1cccc(Cn2nc(-c3nc(-c4ccc(OC(F)(F)F)cc4)no3)ccc2=O)c1` [Example 120, 3-((6-oxo-3-(3-(4-(trifluoromethoxy)phenyl)-1,2,4-oxadiazol-5-yl)pyridazin-1(6H)-yl)methyl)benzonitrile] reads under 100 nM.
For `COCCOc1cccc(Cn2cc(-c3noc(-c4ccc(C5CCOCC5)cc4)n3)ccc2=O)c1` [Example 74, 1-(3-(2-Methoxyethoxy)benzyl)-5-(5-(4-(tetrahydro-2H-pyran-4-yl)phenyl)-1,2,4-oxadiazol-3-yl)pyridin-2(1H)-one] the value was under 100 nM.
With `CC(C)(CO)c1cccc(Cn2cc(-c3nc(-c4ccc(OC(F)(F)F)cc4)no3)ccc2=O)c1` [Example 38, 1-{[3-(1-Hydroxy-2-methylpropan-2-yl)phenyl]methyl}-5-{3-[4-(trifluoromethoxy)phenyl]-1,2,4-oxadiazol-5-yl}-1,2-dihydropyridin-2-one], the IC50 fell in the range of 100 to 1000 nM.
The result for `COCCOc1cccc(Cn2cc(-c3noc(-c4ccc5c(c4)OC(F)(F)O5)n3)ccc2=O)c1` [Example 224, 5-[5-(2,2-difluoro-2H-1,3-benzodioxol-5-yl)-1,2,4-oxadiazol-3-yl]-1-{[3-(2-methoxyethoxy)phenyl]methyl}-1,2-dihydropyridin-2-one] reads under 100 nM; that for `Cc1ccc(-c2nc(-c3ccc(OC(F)(F)F)cc3)no2)c(=O)n1Cc1cccc(S(N)(=O)=O)c1` [Example 268, 3-[(6-methyl-2-oxo-3-{3-[4-(trifluoromethoxy)phenyl]-1,2,4-oxadiazol-5-yl}-1,2-dihydropyridin-1-yl)methyl]benzene-1-sulfonamide], 100 to 1000 nM.
For `COC(=O)CCc1cccc(Cn2cc(-c3nc(-c4ccc(OC(F)(F)F)cc4)no3)ccc2=O)c1` [Example 46, Methyl 3-{3-[(2-oxo-5-{3-[4-(trifluoromethoxy)phenyl]-1,2,4-oxadiazol-5-yl}-1,2-dihydropyridin-1-yl)methyl]phenyl}propanoate], the IC50 was under 100 nM.
For `CNC(=O)c1cccc(Cn2cc(-c3nc(-c4ccc(OC(F)(F)F)cc4)no3)ccc2=O)c1` [Example 133, N-methyl-3-[(2-oxo-5-{3-[4-(trifluoromethoxy)phenyl]-1,2,4-oxadiazol-5-yl}-1,2-dihydropyridin-1-yl)methyl]benzamide] the value was under 100 nM; for `COCCOc1cccc(Cn2cc(-c3noc(-c4cnc(N5CCC(C)(C)CC5)nc4)n3)ccc2=O)c1` [Example 243, 5-{5-[2-(4,4-dimethylpiperidin-1-yl)pyrimidin-5-yl]-1,2,4-oxadiazol-3-yl}-1-{[3-(2-methoxyethoxy)phenyl]methyl}-1,2-dihydropyridin-2-one], under 100 nM; for `CCOc1cccc(Cn2cc(-c3nc(-c4ccc(OC(F)(F)F)cc4)no3)ccc2=O)c1` [Example 148, 1-[(3-ethoxyphenyl)methyl]-5-{3-[4-(trifluoromethoxy)phenyl]-1,2,4-oxadiazol-5-yl}-1,2-dihydropyridin-2-one], under 100 nM.
For the molecule `COCCOc1cccc(Cn2cc(-c3nnc(-c4ccc(S(=O)(=O)C(F)(F)F)cc4)o3)ccc2=O)c1` [Example 258, 1-{[3-(2-methoxyethoxy)phenyl]methyl}-5-[5-(4-trifluoromethanesulfonylphenyl)-1,3,4-oxadiazol-2-yl]-1,2-dihydropyridin-2-one], the IC50 fell in the range of 100 to 1000 nM.
For `Cc1ncc(-c2nc(-c3ccc(OC(F)(F)F)cc3)no2)nc1Cc1cccc(N2CCN(C)CC2)c1` [Example 90, 5-(5-Methyl-6-(3-(4-methylpiperazin-1-yl)benzyl)pyrazin-2-yl)-3-(4-(trifluoromethoxy)phenyl)-1,2,4-oxadiazole] the value was under 100 nM; for `COCCOc1cccc(Cn2cc(-c3noc(-c4ccc(C(C)=O)cc4)n3)ccc2=O)c1` [Example 208, 5-[5-(4-acetylphenyl)-1,2,4-oxadiazol-3-yl]-1-{[3-(2-methoxyethoxy)phenyl]methyl}-1,2-dihydropyridin-2-one], under 100 nM.
For `CN1CCN(c2cccc(Cn3cc(-c4noc(-c5ccc(S(C)(=O)=O)cc5)n4)ccc3=O)c2)CC1` [Example 186, 5-[5-(4-methanesulfonylphenyl)-1,2,4-oxadiazol-3-yl]-1-{[3-(4-methylpiperazin-1-yl)phenyl]methyl}-1,2-dihydropyridin-2-one] the value was under 100 nM; for `CC(C)Oc1ccc(-c2nnc(-c3ccc(=O)n(Cc4cccc(C(C)(C)O)c4)c3)o2)cc1` [Example 263, 1-{[3-(2-hydroxypropan-2-yl)phenyl]methyl}-5-{5-[4-(propan-2-yloxy)phenyl]-1,3,4-oxadiazol-2-yl}-1,2-dihydropyridin-2-one], 100 to 1000 nM.
`COCCOc1cccc(Cn2cc(-c3noc(-c4ccc(OCC(F)(F)F)cc4)n3)ccc2=O)c1` [Example 203, 1-{[3-(2-methoxyethoxy)phenyl]methyl}-5-{5-[4-(2,2,2-trifluoroethoxy)phenyl]-1,2,4-oxadiazol-3-yl}-1,2-dihydropyridin-2-one] had an IC50 of under 100 nM.
For `COCCOc1cccc(Cn2cc(-c3noc(-c4ccc(N5CCCC5)cc4)n3)ccc2=O)c1` [Example 229, 1-{[3-(2-methoxyethoxy)phenyl]methyl}-5-{5-[4-(pyrrolidin-1-yl)phenyl]-1,2,4-oxadiazol-3-yl}-1,2-dihydropyridin-2-one] the value was under 100 nM.
`COCCOc1cccc(Cn2cc(-c3noc(-c4cnc(OC)nc4)n3)ccc2=O)c1` [Example 231, 1-{[3-(2-methoxyethoxy)phenyl]methyl}-5-[5-(2-methoxypyrimidin-5-yl)-1,2,4-oxadiazol-3-yl]-1,2-dihydropyridin-2-one]: the IC50 lay within 100 to 1000 nM.
The result for `O=c1ccc(-c2nc(-c3ccc(OC(F)(F)F)cc3)no2)cn1Cc1cccc(N2CCOCC2)c1` [Example 144, 1-{[3-(morpholin-4-yl)phenyl]methyl}-5-{3-[4-(trifluoromethoxy)phenyl]-1,2,4-oxadiazol-5-yl}-1,2-dihydropyridin-2-one] reads under 100 nM.
